Reference: patent publication US7186703B2, “Derivatives of branched-chain lipophilic molecules and uses thereof” (D-Pharm Ltd., priority 2000, dated 2007)
Values joined by “and” are separate entries in the source; they are usually repeats but may differ in a detail not shown here. Equal values may be shown once. Read-outs that look alike come from different tables or passages of the source.

Key:
[1] = test system: blood tumor barrier (BTB) of C6 glioma; assay: BTB opening in C6 glioma-bearing rats, Evans blue accumulation in tumor; type: in vivo, Sprague Dawley rats; settings: for EC50: C6 glioma-bearing rats; for BTB EB μg/g Tumor: concentrations around EC50 (Mannitol 25%), unilateral 30 s infusion; for Specificity Tumor/Non-tumor (T/NT): ratio of EB accumulated in tumor and non-tumor brain
Description: (§1) In order to study the ability of DP-BFA compounds to modulate blood tumor barrier (BTB), a model system of C6 glioma-bearing rats, was employed.
(§2) Sprague Dawley (SD) rats were inoculated with C6 gliosarcoma cells following the procedure described by Bartus et al. (Exp Neurol (1996); 142:14–28). A small burr-hole was made in the frontal scalp bone of the rat fixed in a stereotaxis apparatus. Using a Hamilton syringe, 10 μl or 5 μl of media, containing 2.5×10^5 C6 gliosarcoma cells were inoculated into the frontal cortex. Coordinates were 1 mm posterior of bregma, 2.5 mm—lateral, and 3 mm—depth. The needle remained in the place for 5 min. After removal of the needle, fascia and scalp were sutured. The rats were checked 6–8 days after inoculation, when tumors of sufficient size (20–60 mg) had developed. The tumor was weighed after F—Na visualization and dissection. Parts of the rats' brains were subject to histological examinations and monitored for Evans Blue and Fluorescein uptake into ipsilateral tumour tissue, peritumoural tissue and contralateral tissue.
(§3) The bilateral tumor model system of C6 glioma-bearing rats described in Example 23 above was employed for screening of various derivatives of DP-BFA for their ability to permeabilize the blood brain barrier (BBB) in comparison to their effect on the blood tumor barrier (BTB). The experimental procedure described in Example 23 was followed except that the tumor-bearing rats were further treated with DP-BFA. The tested compounds, at concentrations around their EC50 values, were unilaterally infused into the external carotis artery over 30 seconds as described in Example 17. Animals treated with vehicle only serve as a control group. Permeabilization effect was quantitated by measuring accumulation of albumin bound Evans blue dye in tumor (T) versus non-tumor (NT) tissues.
(§4) Specificity index is defined as the ratio between the levels of EB accumulated in tumor and those accumulated in non-tumor brain tissues (T/NT).

[2] = test system: blood brain barrier (BBB); assay: BBB opening in C6 glioma-bearing rats, Evans blue accumulation in non-tumor brain; type: in vivo, Sprague Dawley rats; settings: concentrations around EC50 (Mannitol 25%), unilateral 30 s infusion
Description: as §1, §2, §3, §4

C6 gliosarcoma tumor = assay: Anti-tumor activity in C6 glioma-bearing rats, tumor volume (Example 27); type: in vivo, rat; settings: for anti-tumor effect on glioma growth (in words): rat, in vivo; for Tumor volume (mm^3) ± SE: control 8.1 ± 2.22
Description: The anti-tumor effects of various P-BFAs were studied in the in vivo model system described above in Example 17. Tested P-BFAs were intra-arterially administered at the concentrations previously determined as being effective in permeabilization of the BBB and BTB for Evans blue and Fluorescein extravasation. The experimental procedure for tumor inoculation, as described in Example 23, was followed.
On Day 3–4 following inoculation of the C6 gliosarcoma cells, rat were cannulated through external carotid artery and the tested P-BFAs were infused over 30 seconds, as described in Example 17, except that in this experiment no markers were administered. The treated rats were maintained until Day 7–9, and then sacrificed. Coronal sections were obtained, stained by eosin-hematoxylin, and reviewed histologically to determine tumor volume. Animals treated with vehicle only serve as control. Standard error and Student's test for statistical significance were used.

[3] = Octanol/saline solubility and partition coefficient, shake-flask technique; settings: for LogPc (octanol-saline partition coefficient) / logD: octanol/physiological saline; for LogPc (octanol-saline partition coefficient) / Water mg/ml (solubility in aqueous solution): sodium salts; for Water mg/ml (solubility in aqueous solution): physiological saline as aqueous solution; for Octanol mg/ml (solubility in octanol): sodium salts of the branched fatty acids and their PO4 derivatives
Description: The lipophilicity values of various derivatives of branched fatty acids were estimated by comparing the solubility of these compounds in organic versus aqueous solutions. Octanol and physiological saline were used, respectively, as the organic and aqueous solutions. The partition coefficient (Pc) value, i.e. the octanol/saline distribution was measured by the shake-flask technique.

[4] = test system: Caco-2 colon cancer cell line; assay: MTT cytotoxicity, Caco-2; type: cell-based, human; settings: Caco-2, three days, read-out: EC50 (50% reduction in cell viability)
Description: (§5) The cytotoxic activity of various phospho-derivatives of branched-chain fatty acids (DP-BFAs) was assayed in vitro in cell cultures that include normal and malignant cell types. The following cell systems were used: • Primary fibroblasts (human) • Normal bone marrow (BM) cells (mouse) • Primary bronchial epithelial cells (human, from Clonetics, cat. no. CC-2541) • Caco-2—colon cancer cell line (human, ATTC, HTB-37) • C6 glioma cell line (rat, ATCC, CRL-2199) • Neuro2a—neuroblastoma cell line (mouse, ATCC, CCL-131) • SKBR-3—breast cancer cell line (human, ATTC, HTB-30) • HL60—myeloid leukemia cell line (human, ATCC, CCL-240) • U937—myeloid leukemia cell line (human)
(§6) Cells were seeded in a microtiter plate in MEM containing 2 mM L-glutamine, 100 units/ml penicillin, 100 ug/ml streptomycin and 10% FCS at 37° C. The cultured cells were incubated, during their linear growth phase in the absence (control group) or presence of various DP-BFAs as indicated. The final concentrations of the tested DP-BFAs ranged from 1.5 to 200 microMolars. At the end of the incubation period, which was five days for the bone marrow cells and three days for all the other cell lines, the cytotoxic effect of the added P-BFA on the cells was estimated by using the colorimetric MTT assay. The MTT assay (Mosmann (1983) J. Immunol Methods 65: 55–63) measures mitochondrial reductase activity and serves for quantitative assessment of cellular viability. Drug concentration that causes 50% reduction in cell viability in comparison to the control group, is defined as EC50. The EC50 values of the tested DP-BFA compounds were calculated from dose response curves established for each of the different assayed cell lines.
(§7) Each EC50 value is an average of EC50 values derived from 1–5 independent experiments.

[5] = test system: SKBR-3 breast cancer cell line; assay: MTT cytotoxicity, SKBR-3; type: cell-based, human; settings: three days, read-out: EC50 (50% reduction in cell viability)
Description: as §5, §6, §7

[6] = test system: HL60 myeloid leukemia cell line; assay: MTT cytotoxicity, HL60; type: cell-based, human; settings: HL60, three days, read-out: EC50 (50% reduction in cell viability)
Description: as §5, §6, §7

[7] = test system: U937 myeloid leukemia cell line; assay: MTT cytotoxicity, U937; type: cell-based, human; settings: U937, three days, read-out: EC50 (50% reduction in cell viability)
Description: as §5, §6, §7

Primary fibroblasts = assay: MTT cytotoxicity, normal primary fibroblasts; type: cell-based, human; settings: three days, read-out: EC50 (50% reduction in cell viability)
Description: as §5, §6, §7

[8] = test system: Normal bone marrow (BM) cells; assay: MTT cytotoxicity, normal bone marrow cells; type: cell-based, mouse; settings: five days, read-out: EC50 (50% reduction in cell viability)
Description: as §5, §6, §7

[9] = test system: Primary bronchial epithelial cells; assay: MTT cytotoxicity, normal primary epithelial cells; type: cell-based, human; settings: Normal primary epithel, three days, read-out: EC50 (50% reduction in cell viability)
Description: as §5, §6, §7

[10] = Mus musculus, Bone marrow cell, 120 h
[11] = Homo sapiens, Primary bronchial epithelial cell, 72 h
[12] = octanol, organic solvent or mixture
[13] = physiological saline, saline or isotonic

## 2-(4′-Hexadecanoyloxy)ethoxyethyl phosphate [3,12-DEG-PO4]
[1]
  EC50: 7 ± 2 µM
  BTB EB μg/g Tumor: 34 ± 8 µg/g
  Specificity Tumor/Non-tumor (T/NT): 22 and 22 ± 5
[2]
  BBB EB μg/g Non-tumor brain: 2.0 ± 0.2 µg/g
C6 gliosarcoma tumor
  anti-tumor effect on glioma growth (in words): most pronounced anti-tumor effect
[3]
  LogPc (octanol-saline partition coefficient): 1.31
  Water mg/ml (solubility in aqueous solution): 8 mg/mL
  Octanol mg/ml (solubility in octanol): >5 mg/mL

## CCCCCCCCCCCCC(CCC)C(=O)OCCOCCOP(=O)([O-])OCC[N+](C)(C)C (stereo not drawn) [3,12-DEG-PC, 2-(2′-Propyltetradecanoyloxy)ethoxyethylphosphocholine]
[4]; Homo sapiens, 72 h
  EC50: 113 µM
[5]; Homo sapiens, SK-BR-3, 72 h
  EC50: 40 µM
[6]; Homo sapiens, HL-60, 72 h
  EC50: 11 µM
[7]; Homo sapiens, U-937, 72 h
  EC50: 6 µM
Primary fibroblasts; Homo sapiens, Fibroblast, 72 h
  EC50: 170 µM
[8]; [10]
  EC50: 166 µM
[9]; [11]
  EC50: 90 µM
[1]; Rattus norvegicus
  EC50: 60 µM
[1]
  BTB EB μg/g Tumor: 11 µg/g
  Specificity Tumor/Non-tumor (T/NT): 2
[2]
  BBB EB μg/g Non-tumor brain: 5 µg/g
C6 gliosarcoma tumor; P-BFA 60 μM i.a.
  Tumor volume (mm^3) ± SE: 3.9 ± 1.0 mm^3
[3]; [12]
  solubility: > 50000 µg/mL
[3]
  logD: 0.73
[3]; [13]
  solubility: > 10000 µg/mL

## CCCCCCCCCCCCC(CCC)C(=O)OCCOCCOP(=O)([O-])[O-].[Na+].[Na+] (stereo not drawn) [3,12-DEG-PO4Na2, 2-[2′-(2″-Propyltetradecanoyloxy)-ethoxy]ethyl Disodium Phosphate]
[4]
  EC50: 40 µM
[5]
  EC50: 60 µM
[7]
  EC50: 25 µM
Primary fibroblasts
  EC50: 65 µM
[8]
  EC50: 62 µM
[9]
  EC50: > 200 µM
C6 gliosarcoma tumor; P-BFA 30 μM i.a.
  Tumor volume (mm^3) ± SE: 1.6 ± 0.4 mm^3

## CCCCCCCCCCCCC(CCC)C(=O)OCCOP(=O)([O-])OCC[N+](C)(C)C (stereo not drawn) [3,12-MEG-PC, 2-(2′-Propyltetradecanoyloxy)ethylphosphocholine]
[4]; Homo sapiens, 72 h
  EC50: 75 µM
[5]; Homo sapiens, SK-BR-3, 72 h
  EC50: 50 µM
[6]; Homo sapiens, HL-60, 72 h
  EC50: 20 µM
[7]; Homo sapiens, U-937, 72 h
  EC50: 9 µM
Primary fibroblasts; Homo sapiens, Fibroblast, 72 h
  EC50: 160 µM
[8]; [10]
  EC50: 95 µM
[9]; [11]
  EC50: 94 µM
[1]; Rattus norvegicus
  EC50: 20 µM
[1]
  BTB EB μg/g Tumor: 12 µg/g
  Specificity Tumor/Non-tumor (T/NT): 2
[2]
  BBB EB μg/g Non-tumor brain: 6 µg/g
C6 gliosarcoma tumor; P-BFA 10 μM i.a.
  Tumor volume (mm^3) ± SE: 2.88 ± 0.6 mm^3
C6 gliosarcoma tumor
  anti-tumor effect on glioma growth (in words): significant anti-tumor activity
[3]; [12]
  solubility: > 10000 µg/mL
[3]
  logD: 1.22
[3]; [13]
  solubility: > 10000 µg/mL

## CCCCCCCCCCCCC(CCC)C(=O)[O-].[Na+] (stereo not drawn) [3,12-Na, reference compound]
[4]
  EC50: 100 µM
[5]
  EC50: 130 µM
[7]
  EC50: 68 µM
[1]
  EC50: 22 ± 4 µM
  BTB EB μg/g Tumor: 44 ± 8 µg/g
  Specificity Tumor/Non-tumor (T/NT): 1.1 ± 0.3
[2]
  BBB EB μg/g Non-tumor brain: 43 ± 9 µg/g
[3]
  LogPc (octanol-saline partition coefficient): 0.99
  Water mg/ml (solubility in aqueous solution): >10 mg/mL
  Octanol mg/ml (solubility in octanol): >20 mg/mL

## CCCCCCCCCCCCC(CCC)OP(=O)([O-])OCC[N+](C)(C)C (stereo not drawn) [3,12-PC, 4-Hexadecanyl phosphocholine]
[4]
  EC50: 150 µM
[5]
  EC50: 62 µM
[6]
  EC50: 47 µM
[1]
  EC50: 52 ± 7 µM
  BTB EB μg/g Tumor: 17 ± 2 µg/g
  Specificity Tumor/Non-tumor (T/NT): 1.8 ± 0.5
[2]
  BBB EB μg/g Non-tumor brain: 10 ± 2 µg/g
C6 gliosarcoma tumor; P-BFA 50 μM i.a.
  Tumor volume (mm^3) ± SE: 3.8 ± 0.8 mm^3
[3]
  Water mg/ml (solubility in aqueous solution): >10 mg/mL
  Octanol mg/ml (solubility in octanol): >10 mg/mL
